Data reported in paper PMC9310613, “Selenocarbamates As a Prodrug‐Based Approach to Carbonic Anhydrase Inhibition” (Chemmedchem, 2022).
Read-outs that look alike come from different tables or passages of the source.

Tests used:
Experiment in all cases: stopped-flow CO2 hydration assay
Type in all cases: biochemical
hCA I = target: T1, hCA I (Homo sapiens, UniProt P00915)
T1 construct: gene CA1; recombinant, obtained in house
Description: stopped-flow CO2 hydration assay on hCA I

hCA II [1] = target: T2, hCA II (Homo sapiens, UniProt P00918)
T2 construct: gene CA2; recombinant, obtained in house
Description: stopped-flow CO2 hydration assay on hCA II

hCA II [2] = target: T2, hCA II; details: read-out: hCA I

T1 sequence (P00915 2-261): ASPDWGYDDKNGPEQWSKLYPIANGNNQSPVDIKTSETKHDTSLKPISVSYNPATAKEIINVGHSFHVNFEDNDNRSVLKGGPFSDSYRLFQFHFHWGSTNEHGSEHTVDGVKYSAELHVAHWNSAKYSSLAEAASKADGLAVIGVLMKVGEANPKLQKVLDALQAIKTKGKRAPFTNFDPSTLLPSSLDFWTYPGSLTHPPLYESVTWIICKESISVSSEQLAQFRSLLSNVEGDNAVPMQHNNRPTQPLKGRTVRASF

Ki (hCA I) [µM] | Ki (hCA II [1]) [µM] | Ki (hCA II [2]) [µM] | SMILES
> 100 |  | > 100 | Cc1ccc(S(=O)(=O)N[C@@H](C)C[Se]C(=O)Nc2cc(C)cc(C)c2)cc1 [3u, 3 u]
67.4 | 83.4 |  | O=C(NCc1ccco1)[Se][C@@H]1CCCC[C@H]1O (relative stereo) [3t, 3 t]
74.3 | 84.6 |  | Cc1cc(C)cc(NC(=O)[Se][C@@H]2CCCC[C@H]2O)c1 (relative stereo) [3s, 3 s]
92.1 | 87.4 |  | CCCCCCCCCCCC[Se]C(=O)Nc1ccc(Br)cc1 [3m, 3 m]
90.3 | 85.2 |  | CCCCCCCCCCCC[Se]C(N)=O [3n, 3 n]
85 | 39.9 |  | O=C(Nc1ccc(Br)cc1)[Se]Cc1ccccc1 [3p, 3 p]
92.7 | 79.4 |  | CC(C)OCC(O)C[Se]C(=O)NC12CC3CC(CC(C3)C1)C2 (racemic) [3r, 3 r]
67.5 | 79.3 |  | C=CCOCC(O)C[Se]C(=O)Nc1cc(C)cc(C)c1 (racemic) [3q, 3 q]

Further lines, the molecule ahead of its results:

SMILES | Ki (hCA I) [µM] | Ki (hCA II [1]) [µM] | Ki (hCA II [2]) [µM]
O=C(Nc1ccccc1)[Se]c1ccccc1 [3b, 3 b] | 40.4 | 4.1 | 
O=C(Nc1ccc(Br)cc1)[Se]c1ccccc1 [3h, 3 h] | 13.8 | 8.6 | 
O=C(Nc1ccc(Cl)cc1)[Se]c1ccccc1 [3g, 3 g] | 42.5 | 13.1 | 
Cc1ccccc1[Se]C(=O)Nc1ccc(Br)cc1 [3l, 3 l] | 13.4 | 8 | 
NC(=O)[Se]c1ccccc1 [3j, 1‐(phenylselanyl)formamide] | 9.8 | 6.8 | 
COc1cccc(NC(=O)[Se]c2ccccc2)c1 [3d, 3 d] | 49.3 | 7.9 | 
O=C(Nc1ccc(F)cc1)[Se]c1ccccc1 [3f, 3 f] | 15.3 | 9.4 | 
Cc1ccc(NC(=O)[Se]c2ccccc2)cc1 [3c, 3 c] | 25.9 | 8.4 | 
Cc1ccc([Se]C(=O)Nc2ccc(Br)cc2)cc1 [3k, 3 k] | 38.6 | 11.6 | 
O=C(NCc1ccco1)[Se]c1ccccc1 [3i, 3 i] | 8.8 | 40.4 | 
O=C(Nc1ccccc1F)[Se]c1ccccc1 [3e, 3 e] | 30.8 | 9.2 | 
Cc1cc(C)cc(NC(=O)[Se]c2ccccc2)c1 [3a, 3 a] | 49.5 | 5.3 | 
